A word on the IC50: it is the concentration at which inhibition is half-maximal. As usually defined, the CC50 is the concentration giving 50% cytotoxicity. A higher CC50 goes with better tolerance by the cells.

This is an account of results in publication PMC6069857, “Effects of novel HDAC inhibitors on urothelial carcinoma cells” (Clinical Epigenetics, 2018).

In one series the target is T1, HDAC5 (Homo sapiens, UniProt Q9UQL6).
T1 construct: purchased Reaction Biology Corp. (Malvern, PA)
The conditions noted are these: older assays, given for HDAC4/5 together; cited from earlier work.

Another series deals with T2, HDAC4 (Homo sapiens, UniProt P56524).
T2 construct: purchased Reaction Biology Corp. (Malvern, PA)
T2 sequence (P56524 whole entry): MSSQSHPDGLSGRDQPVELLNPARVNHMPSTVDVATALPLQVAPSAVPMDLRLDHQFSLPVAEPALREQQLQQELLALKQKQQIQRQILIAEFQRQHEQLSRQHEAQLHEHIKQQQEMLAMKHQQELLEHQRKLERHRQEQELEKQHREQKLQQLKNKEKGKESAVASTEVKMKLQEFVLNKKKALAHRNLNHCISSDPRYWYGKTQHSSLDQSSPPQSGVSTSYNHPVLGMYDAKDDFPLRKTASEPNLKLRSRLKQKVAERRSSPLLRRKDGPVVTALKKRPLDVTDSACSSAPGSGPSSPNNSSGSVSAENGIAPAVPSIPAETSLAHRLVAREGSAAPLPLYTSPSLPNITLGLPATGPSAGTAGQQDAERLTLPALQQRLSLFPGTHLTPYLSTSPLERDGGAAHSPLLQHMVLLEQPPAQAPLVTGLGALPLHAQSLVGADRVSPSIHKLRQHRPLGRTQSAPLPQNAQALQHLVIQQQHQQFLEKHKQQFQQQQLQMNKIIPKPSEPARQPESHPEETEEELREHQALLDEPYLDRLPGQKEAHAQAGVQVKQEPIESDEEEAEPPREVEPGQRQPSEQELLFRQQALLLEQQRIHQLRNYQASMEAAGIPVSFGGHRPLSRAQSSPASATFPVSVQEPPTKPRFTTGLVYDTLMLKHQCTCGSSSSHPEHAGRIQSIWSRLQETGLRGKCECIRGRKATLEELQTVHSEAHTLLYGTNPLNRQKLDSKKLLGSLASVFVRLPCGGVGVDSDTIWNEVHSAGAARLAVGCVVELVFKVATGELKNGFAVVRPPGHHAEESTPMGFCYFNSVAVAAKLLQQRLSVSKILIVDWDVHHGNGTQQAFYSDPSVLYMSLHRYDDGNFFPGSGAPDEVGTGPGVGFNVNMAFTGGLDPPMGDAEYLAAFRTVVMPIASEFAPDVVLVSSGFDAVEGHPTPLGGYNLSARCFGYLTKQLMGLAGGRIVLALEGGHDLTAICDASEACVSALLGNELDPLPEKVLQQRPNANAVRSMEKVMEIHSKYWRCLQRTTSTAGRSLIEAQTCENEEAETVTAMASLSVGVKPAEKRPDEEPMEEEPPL
The conditions noted are these: older assays, given for HDAC4/5 together; cited from earlier work.

Series [1] relates to UCCs VM-CUB1, UM-UC-3, and 639-V. The series is described as follows: Western blot of cleaved PARP. The format is cell-based, human. Conditions: 19i 2 μM, 48 h; especially in 639-V. On the procedure:
Total protein extraction, purification of histones, and Western blot analysis were performed as previously described. Briefly, cells were incubated for 30 min on ice in RIPA-buffer (150 mM NaCl, 1% Triton X-100, 0.5% desoxycholate, 1% Nonidet P-40, 0.1% SDS, 1 mM EDTA, 50 mM TRIS (pH 7.6)) containing 10 μl/ml protease inhibitor cocktail (#P-8340, Sigma Aldrich, St. Louis, MO). Histones were extracted for detection of histone H3 and H4 acetylation by a modified published protocol employing sulfuric acid extraction and TCA-precipitation. Concentrations of total protein and histones were determined by BCA protein assay (Thermo Fisher Scientific, Carlsbad, CA). Subsequently, total cell proteins (15 μg) or extracted histones (2 μg) were separated by SDS-PAGE (total proteins 10–12% gels, histones 15% gels), transferred to PVDF membranes (Merck Millipore, Berlin, Germany), and were incubated with primary antibodies (at RT for 1 h or 4 °C overnight, see Additional file 3: Table S2) following blocking with 5% non-fat milk or BSA (bovine serum albumin) in TBST (150 mM NaCl, 10 mM TRIS, pH 7.4 and 0.1% Tween-20). […]
(In general: In western blotting, separated proteins are transferred to a membrane and probed.)

Another series has as its target HDAC2 (Homo sapiens, UniProt Q92769). Briefly: In vitro fluorescence-based HDAC inhibition assay (Reaction Biology). Conditions: read-out: IC50 HDAC2; experiment performed once.
Another series concerns HEK-293. The series is described as follows: MTT viability assay (CC50). It counts as cell-based, human. The conditions noted are these: HEK-293, MTT, 72 h of incubation. The method, then: (§1) Further experiments were performed in VM-CUB1 and UM-UC-3 cells overexpressing HDAC4 (see below). Standard UCCs were obtained from the DSMZ (Braunschweig, Germany) and Dr. H.B. Grossmann HB (Houston, USA). For comparison, we investigated the spontaneously immortalized normal human bladder cell line HBLAK (provided by CELLnTEC, Bern, Switzerland) and the immortalized human embryonic kidney cell line HEK-293 (provided by Dr. V. Kolb-Bachofen, Duesseldorf, Germany). Cells were cultured and treated in DMEM GlutaMAX-I (Gibco, Darmstadt, Germany; UCCs and HEK-293) supplemented with 10% fetal calf serum (Biochrom, Berlin, Germany), except for HBLAK cultured in CnT-Prime Epithelial Culture Medium (CELLnTEC, Bern, Switzerland; HBLAK), at 37 °C and 5% CO2. STR (short tandem repeat) profiling via DNA fingerprint analysis was performed for all cell lines. Primary cultures of normal urothelial cells (UP) were established from healthy ureters removed during tumor nephrectomy and cultured as described. These cultures were used with informed consent of the patients and approval by the Ethics Committee of the Medical Faculty of the Heinrich-Heine-University, study number 1788. All inhibitors were dissolved in DMSO and stored as 10 mM stocks. […] The pan-HDACi inhibitor SAHA previously studied in detail was used for comparison. Solvent control cells were treated with equal amounts of DMSO.
(§2) For the determination of cellular mean cytotoxic concentration (CC50), UCCs, non-malignant control cells, and HDAC4-overexpressing clones were seeded in a 96-well format and treated once with a range of defined concentrations of the HDAC inhibitors. After 72 h, viability was quantified by NAD(P)H-dependent 3-(4,5-dimethylthiazol-2-yl)-2,5-diphenyltetrazolium bromide dye reduction assay (MTT, Sigma Aldrich, St. Louis, MO). CC50 values were estimated from three independent experiments by non-linear regression analysis (four-parameter logistic equation) using Prism 4.0 (Graph Pad) or Origin 8.0 (Origin Lab, Northhampton, GB). For time-dependent proliferation experiments, viability of untreated or inhibitor-treated cells was measured after 24, 48, and 72 h.

A further series has as its system 639-V. Briefly: MTT viability assay (CC50). Conditions: 72 h of incubation. The format is cell-based, human. The method, then: as §1, §2
On the technique in general: Tetrazolium dyes change colour on reduction, which living cells bring about.

Another series deals with HBLAK. The series is described as follows: MTT viability assay (CC50). The conditions noted are these: 72 h of incubation. The format is cell-based, human. On the procedure:
as §1, §2

A further series relates to VM-CUB1. Briefly: MTT viability assay (CC50). The conditions noted are these: VM-CUB1, MTT, 72 h of incubation. The format is cell-based, human. The method, then: as §1, §2
The next series deals with UM-UC-3. Briefly: MTT viability assay (CC50). It counts as cell-based, human. Conditions: UM-UC-3, MTT, 72 h of incubation. On the procedure: as §1, §2
The next series has as its target HDAC3 (Homo sapiens, UniProt O15379). The series is described as follows: In vitro fluorescence-based HDAC inhibition assay (Reaction Biology). The conditions noted are these: read-out: IC50 HDAC3; experiment performed once.

T1 sequence (Q9UQL6 whole entry): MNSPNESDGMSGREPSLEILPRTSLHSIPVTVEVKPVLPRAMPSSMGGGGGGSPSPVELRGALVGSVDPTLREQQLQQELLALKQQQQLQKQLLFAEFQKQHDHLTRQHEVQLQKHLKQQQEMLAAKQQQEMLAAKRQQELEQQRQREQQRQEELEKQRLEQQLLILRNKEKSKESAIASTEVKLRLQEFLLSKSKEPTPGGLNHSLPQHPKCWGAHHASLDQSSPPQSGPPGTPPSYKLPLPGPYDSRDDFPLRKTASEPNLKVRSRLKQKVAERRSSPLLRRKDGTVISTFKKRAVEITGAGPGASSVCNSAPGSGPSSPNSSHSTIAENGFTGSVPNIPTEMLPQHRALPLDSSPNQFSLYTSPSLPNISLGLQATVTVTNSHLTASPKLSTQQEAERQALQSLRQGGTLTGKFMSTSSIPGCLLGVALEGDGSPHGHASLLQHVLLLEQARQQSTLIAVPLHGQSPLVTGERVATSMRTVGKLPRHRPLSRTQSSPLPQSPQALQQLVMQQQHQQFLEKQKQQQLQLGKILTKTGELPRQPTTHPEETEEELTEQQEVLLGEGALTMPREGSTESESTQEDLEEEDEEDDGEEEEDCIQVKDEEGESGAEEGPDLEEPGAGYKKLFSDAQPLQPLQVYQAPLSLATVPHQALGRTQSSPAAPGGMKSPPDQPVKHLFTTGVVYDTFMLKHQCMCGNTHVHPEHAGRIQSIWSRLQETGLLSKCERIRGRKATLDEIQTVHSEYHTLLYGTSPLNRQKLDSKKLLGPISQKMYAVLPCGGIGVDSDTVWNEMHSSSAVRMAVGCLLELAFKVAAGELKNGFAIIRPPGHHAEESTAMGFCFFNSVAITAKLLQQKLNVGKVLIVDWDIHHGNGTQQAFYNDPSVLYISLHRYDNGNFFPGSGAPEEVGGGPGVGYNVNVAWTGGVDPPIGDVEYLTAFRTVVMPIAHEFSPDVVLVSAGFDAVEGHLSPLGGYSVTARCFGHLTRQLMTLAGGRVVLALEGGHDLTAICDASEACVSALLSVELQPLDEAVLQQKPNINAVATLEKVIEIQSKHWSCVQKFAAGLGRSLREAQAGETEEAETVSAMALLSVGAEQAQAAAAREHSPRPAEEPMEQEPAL
HDAC2, sequence (Q92769 whole entry): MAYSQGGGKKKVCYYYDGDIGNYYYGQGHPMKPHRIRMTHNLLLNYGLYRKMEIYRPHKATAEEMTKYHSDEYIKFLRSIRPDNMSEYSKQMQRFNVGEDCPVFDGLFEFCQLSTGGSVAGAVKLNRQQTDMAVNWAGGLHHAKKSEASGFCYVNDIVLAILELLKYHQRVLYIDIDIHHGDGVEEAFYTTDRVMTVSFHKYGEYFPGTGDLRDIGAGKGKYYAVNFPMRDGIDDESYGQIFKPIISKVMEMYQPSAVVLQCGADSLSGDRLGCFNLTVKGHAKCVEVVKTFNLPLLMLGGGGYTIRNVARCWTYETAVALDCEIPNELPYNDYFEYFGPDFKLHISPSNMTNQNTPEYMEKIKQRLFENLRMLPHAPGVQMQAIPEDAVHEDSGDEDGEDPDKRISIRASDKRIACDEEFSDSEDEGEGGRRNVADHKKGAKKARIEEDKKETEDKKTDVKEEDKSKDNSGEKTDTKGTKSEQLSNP
HDAC3, sequence (O15379 whole entry): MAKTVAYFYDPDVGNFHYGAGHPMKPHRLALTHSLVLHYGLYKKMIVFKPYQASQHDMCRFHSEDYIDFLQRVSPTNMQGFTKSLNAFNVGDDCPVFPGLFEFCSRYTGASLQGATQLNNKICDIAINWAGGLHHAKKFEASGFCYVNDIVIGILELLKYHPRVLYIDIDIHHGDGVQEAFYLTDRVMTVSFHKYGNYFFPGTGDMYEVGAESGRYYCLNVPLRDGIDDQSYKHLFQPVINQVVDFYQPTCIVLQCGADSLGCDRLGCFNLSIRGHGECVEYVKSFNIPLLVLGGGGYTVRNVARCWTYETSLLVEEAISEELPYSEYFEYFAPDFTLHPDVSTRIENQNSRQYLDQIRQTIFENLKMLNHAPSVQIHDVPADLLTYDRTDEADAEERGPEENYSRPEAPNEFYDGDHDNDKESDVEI
HDAC3, sequence (Q9Y618 395-489 partner limits assumed): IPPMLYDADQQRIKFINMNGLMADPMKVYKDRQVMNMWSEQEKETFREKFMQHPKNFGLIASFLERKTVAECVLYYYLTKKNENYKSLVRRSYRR

For the compound `Cc1cc(C)cc(C(=O)NOCCCCCC(=O)NO)c1` [19i], the “in vitro IC50 HDAC5” value at HDAC5 is “nanomolar range”. In addition, on HDAC4, the “in vitro IC50 HDAC4” value is “nanomolar range”. Also, in series [1], the PARP cleavage entry was “augmented”. In addition, the IC50 at HDAC2 was determined as 402 nM; on HDAC3, 236 nM. Further, the 50% cytotoxic concentration (CC50) in the series with HEK-293 was 610 nM; in the series with 639-V it was 1030 nM; with HBLAK, > 5000 nM; with VM-CUB1 it was 970 nM; with UM-UC-3, 820 nM.
